This passage reports Ki results from patent US20090227607A1, “DEAZAPURINES USEFUL AS INHIBITORS OF JANUS KINASES” (priority 2006, published 2009).

SMILES strings stand for the structures. A value given as a limit tells only on which side of the number the result lay.

One test has as its target JAK-2 enzyme (Homo sapiens, UniProt O60674). Kind of test: JAK2 Inhibition Assay. It is filed as biochemical. Conditions: 15 μM poly(Glu)4Tyr, 12 μM ATP, 25° C. The procedure: (§1) Compounds were screened for their ability to inhibit JAK3 using the assay shown below. Reactions were carried out in a kinase buffer containing 100 mM HEPES (pH 7.4), 1 mM DTT, 10 mM MgCl2, 25 mM NaCl, and 0.01% BSA. Substrate concentrations in the assay were 5 μM ATP (200 uCi/μmole ATP) and 1 μM poly(Glu)4Tyr. Reactions were carried out at 25° C. and 1 nM JAK3.
(§2) To each well of a 96 well polycarbonate plate was added 1.5 μl of a candidate JAK3 inhibitor along with 50 μl of kinase buffer containing 2 μM poly(Glu)4Tyr and […]. This was then mixed and […] of kinase buffer containing 2 nM JAK3 enzyme was added to start the reaction. After 20 minutes at room temperature (25° C.), the reaction was stopped with 50 μl of 20% trichloroacetic acid (TCA) that also contained 0.4 mM ATP. The entire contents of each well were then transferred to a 96 well glass fiber filter plate using a TomTek Cell Harvester. After washing, 60 μl of scintillation fluid was added and ^33P incorporation detected on a Perkin Elmer TopCount.
The assays were as described above in Example 36 except that JAK-2 enzyme was used, the final poly(Glu)4Tyr concentration was 15 μM, and final ATP concentration was 12 μM.
(§3) Tables 5 and 6 depict enzyme inhibition data (Ki) for certain exemplary compounds. Compound numbers in Tables 5 and 6 correspond to those compounds depicted in Tables 1 and 2, respectively.

The target of a further test is T1, JAK3 (Homo sapiens, UniProt P52333).
T1 sequence (P52333 1-1124): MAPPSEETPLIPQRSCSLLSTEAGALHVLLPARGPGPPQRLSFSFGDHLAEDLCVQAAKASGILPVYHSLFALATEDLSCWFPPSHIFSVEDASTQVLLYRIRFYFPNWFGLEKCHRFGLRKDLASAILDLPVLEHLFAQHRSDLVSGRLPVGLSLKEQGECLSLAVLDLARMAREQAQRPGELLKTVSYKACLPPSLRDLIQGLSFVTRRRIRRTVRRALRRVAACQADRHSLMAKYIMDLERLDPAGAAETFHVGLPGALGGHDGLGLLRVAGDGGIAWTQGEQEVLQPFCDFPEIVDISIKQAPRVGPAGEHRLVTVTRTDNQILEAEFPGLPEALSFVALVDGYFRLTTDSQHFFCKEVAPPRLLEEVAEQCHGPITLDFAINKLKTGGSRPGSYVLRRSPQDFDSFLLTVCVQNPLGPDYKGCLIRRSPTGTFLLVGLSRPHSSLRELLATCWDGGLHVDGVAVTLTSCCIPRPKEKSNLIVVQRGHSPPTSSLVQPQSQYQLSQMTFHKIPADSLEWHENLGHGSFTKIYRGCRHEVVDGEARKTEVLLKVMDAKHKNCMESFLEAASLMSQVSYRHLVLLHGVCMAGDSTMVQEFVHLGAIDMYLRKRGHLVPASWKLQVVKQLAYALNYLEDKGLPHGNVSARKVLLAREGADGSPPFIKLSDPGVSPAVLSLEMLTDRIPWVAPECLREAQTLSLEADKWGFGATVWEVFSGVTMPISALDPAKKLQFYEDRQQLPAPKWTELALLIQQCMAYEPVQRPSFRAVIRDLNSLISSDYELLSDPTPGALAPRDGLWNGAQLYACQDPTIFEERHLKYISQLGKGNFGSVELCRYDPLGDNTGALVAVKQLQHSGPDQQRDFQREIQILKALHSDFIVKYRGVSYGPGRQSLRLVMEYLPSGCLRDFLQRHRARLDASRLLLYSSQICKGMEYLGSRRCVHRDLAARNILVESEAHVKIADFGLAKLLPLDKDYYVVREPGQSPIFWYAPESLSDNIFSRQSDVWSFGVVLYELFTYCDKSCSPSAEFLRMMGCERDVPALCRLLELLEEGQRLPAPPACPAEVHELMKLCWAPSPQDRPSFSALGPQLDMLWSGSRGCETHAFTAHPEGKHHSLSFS
Briefly: JAK3 Inhibition Assay. Conditions: 1 μM poly(Glu)4Tyr, 5 μM ATP, 1 nM JAK3, 25° C.; read-out: JAK3 enzyme inhibition data (Ki). In kind it is biochemical. The procedure: as §1, §2, §3

Chain of JAK-2 enzyme (O60674 whole entry, species assumed): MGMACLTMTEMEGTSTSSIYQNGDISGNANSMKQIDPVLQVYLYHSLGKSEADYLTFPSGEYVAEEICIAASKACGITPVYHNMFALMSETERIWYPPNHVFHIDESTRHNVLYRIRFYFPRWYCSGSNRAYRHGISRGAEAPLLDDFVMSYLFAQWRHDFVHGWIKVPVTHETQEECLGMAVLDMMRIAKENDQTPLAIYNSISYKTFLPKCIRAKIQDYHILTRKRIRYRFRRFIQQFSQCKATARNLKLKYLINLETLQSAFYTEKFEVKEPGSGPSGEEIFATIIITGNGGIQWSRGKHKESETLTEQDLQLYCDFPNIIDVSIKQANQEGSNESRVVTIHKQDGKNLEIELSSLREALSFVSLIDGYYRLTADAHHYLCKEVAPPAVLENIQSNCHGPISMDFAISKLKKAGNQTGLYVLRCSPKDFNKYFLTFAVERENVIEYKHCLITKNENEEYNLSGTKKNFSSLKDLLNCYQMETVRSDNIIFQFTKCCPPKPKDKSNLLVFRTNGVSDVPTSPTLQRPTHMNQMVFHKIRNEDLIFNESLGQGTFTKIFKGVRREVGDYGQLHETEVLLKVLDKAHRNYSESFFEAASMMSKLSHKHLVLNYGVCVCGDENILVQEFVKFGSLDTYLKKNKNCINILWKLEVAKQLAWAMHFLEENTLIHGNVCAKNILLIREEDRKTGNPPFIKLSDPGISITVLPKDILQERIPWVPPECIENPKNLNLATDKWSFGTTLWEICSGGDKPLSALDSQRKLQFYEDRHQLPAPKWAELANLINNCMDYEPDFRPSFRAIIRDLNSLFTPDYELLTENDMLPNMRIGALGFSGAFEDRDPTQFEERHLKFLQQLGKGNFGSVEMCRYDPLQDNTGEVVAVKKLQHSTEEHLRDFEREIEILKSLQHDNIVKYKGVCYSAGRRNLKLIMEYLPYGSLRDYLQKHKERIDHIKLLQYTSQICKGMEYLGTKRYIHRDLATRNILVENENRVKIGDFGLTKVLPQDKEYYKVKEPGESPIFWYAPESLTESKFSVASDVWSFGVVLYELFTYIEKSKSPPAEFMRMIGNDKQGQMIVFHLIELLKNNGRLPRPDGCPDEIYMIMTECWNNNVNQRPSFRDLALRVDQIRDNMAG

Turning to `CC(CC(F)(F)F)C(=O)Nc1nc(-c2ncnc3[nH]ccc23)cs1` (centres unmarked) [Compound 102], the Ki at JAK-2 enzyme and at JAK3 was less than 0.1 µM throughout.

Consider `N#CCN(Cc1ccc(F)cc1)C(=O)c1cc(-c2ncnc3[nH]ccc23)c[nH]1` [Compound 112], for which the Ki at JAK-2 enzyme and at JAK3 was less than 0.1 µM each time.

As for `CC(C)CN(CCC#N)C(=O)c1ccc(-c2ncnc3[nH]ccc23)o1` [Compound 192], the Ki on JAK-2 enzyme and on JAK3 was less than 0.1 µM each time.

Regarding `CCCCC(CC)n1cc(-c2ncnc3[nH]ccc23)cn1` (centres unmarked) [Compound 92], the Ki at JAK-2 enzyme and at JAK3 was less than 0.1 µM each time.

In the case of `CCCCN(CCC#N)C(=O)c1cc(-c2ncnc3[nH]ccc23)c[nH]1` [Compound 22], the inhibition constant Ki at JAK-2 enzyme and on JAK3 was less than 0.1 µM in each case.

For `NC(=O)C1CCCN1C(=O)c1cc(-c2ncnc3[nH]ccc23)c[nH]1` (centres unmarked) [Compound 47], the inhibitory constant (Ki) at JAK-2 enzyme and on JAK3 was 0.1 to 0.5 µM in each case.

On to `FC(F)(F)CCCn1cc(-c2ncnc3[nH]ccc23)cn1` [Compound 6], for which the inhibition constant (Ki) (in general, a dissociation constant, usually derived from enzyme kinetics or from competition with a known ligand) on JAK-2 enzyme was less than 0.1 µM; on JAK3, 0.1 to 0.5 µM.

Regarding `CC(C)CC(=O)N(C)c1nc(-c2ncnc3[nH]ccc23)cs1` [Compound 105], the Ki at JAK-2 enzyme and at JAK3 was less than 0.1 µM in each case.

For the compound `O=C(c1ccc(-c2ncnc3[nH]ccc23)o1)N(CCC(F)(F)F)CC1CCC1` [Compound 215], the inhibition constant (Ki) on JAK-2 enzyme and at JAK3 was less than 0.1 µM in each case.

Consider `CN(CC(F)(F)F)C(=O)c1ccc(-c2ncnc3[nH]ccc23)o1` [Compound 127], for which the Ki at JAK-2 enzyme and at JAK3 was less than 0.1 µM in each case.

As to `CCCN(CCC)C(=O)c1cc(-c2ncnc3[nH]ccc23)c[nH]1` [Compound 26], the Ki at JAK-2 enzyme and at JAK3 was less than 0.1 µM each time.

For `O=C(CCC1CC1)Nc1nc(-c2ncnc3[nH]ccc23)cs1` [Compound 96], the Ki on JAK-2 enzyme and at JAK3 was less than 0.1 µM in each case.

As for `CC[C@@H]1CC[C@@H](CC)N1C(=O)c1cc(-c2ncnc3[nH]ccc23)c[nH]1` [Compound 185], the Ki on JAK-2 enzyme was less than 0.1 µM; on JAK3, 0.1 to 0.5 µM.

With `CC(=O)CCC(=O)Nc1nc(-c2ncnc3[nH]ccc23)cs1` [Compound 71], the Ki was less than 0.1 µM on JAK-2 enzyme and 0.1 to 0.5 µM on JAK3.

`O=C(Nc1nc(-c2ncnc3[nH]ccc23)cs1)C1CCCNC1` (centres unmarked) [Compound 176]: the inhibition constant Ki on JAK-2 enzyme and on JAK3 was less than 0.1 µM throughout.

With `CC(C)CN(CC(C)C)C(=O)c1cc(-c2ncnc3[nH]ccc23)c[nH]1` [Compound 28], the inhibitory constant (Ki) at JAK-2 enzyme is less than 0.1 µM; on JAK3, 0.1 to 0.5 µM.

Turning to `CC[C@@H]1CC[C@@H](CC)N1C(=O)c1cc(-c2ncnc3[nH]ccc23)co1` [Compound 246], the inhibitory constant (Ki) on JAK-2 enzyme was less than 0.1 µM; on JAK3, 0.1 to 0.5 µM.

Take `CCN(CCO)C(=O)c1cc(-c2ncnc3[nH]ccc23)c[nH]1` [Compound 40]: the Ki at JAK-2 enzyme is less than 0.1 µM; on JAK3, 0.1 to 0.5 µM.

Turning to `CC(C)NC(=O)C(C)n1cc(-c2ncnc3[nH]ccc23)cn1` (centres unmarked) [Compound 78], the inhibition constant Ki on JAK-2 enzyme and on JAK3 was 0.1 to 0.5 µM throughout.

For `CC[C@@H]1CC[C@@H](CC)N1C(=O)c1ccc(-c2ncnc3[nH]ccc23)o1` [Compound 194], the inhibition constant Ki at JAK-2 enzyme and on JAK3 was less than 0.1 µM each time.

For the compound `Cn1cc(-c2ncnc3[nH]ccc23)cc1C(=O)N(CC1CC1)CC(F)(F)F` [Compound 228], the inhibition constant (Ki) on JAK-2 enzyme and on JAK3 was less than 0.1 µM throughout.

With `CCC(CO)NC(=O)C(C)n1cc(-c2ncnc3[nH]ccc23)cn1` (centres unmarked) [Compound 82], the Ki at JAK-2 enzyme and at JAK3 was 0.1 to 0.5 µM in each case.

Regarding `O=C(c1cc(-c2ncnc3[nH]ccc23)co1)N(CCC(F)(F)F)CC1CCC1` [Compound 250], the Ki at JAK-2 enzyme is less than 0.1 µM; on JAK3 it was 0.1 to 0.5 µM.

On to `CCCn1cc(-c2ncnc3[nH]cc(C)c23)cn1` [Compound 161], for which the inhibition constant Ki on JAK-2 enzyme and on JAK3 was 0.1 to 0.5 µM each time.

As for `O=C(c1ccc(-c2ncnc3[nH]ccc23)o1)N1CCCC1` [Compound 219], the inhibition constant (Ki) on JAK-2 enzyme is 0.1 to 0.5 µM; at JAK3 it was 0.5 to 5 µM.

`O=C(CCc1ccccc1)Nc1nc(-c2ncnc3[nH]ccc23)cs1` [Compound 68]: the Ki on JAK-2 enzyme and on JAK3 was less than 0.1 µM throughout.

On to `C=CCN(C(=O)c1cc(-c2ncnc3[nH]ccc23)c[nH]1)C(C)c1ccccc1` (centres unmarked) [Compound 116], for which the Ki on JAK-2 enzyme and on JAK3 was less than 0.1 µM each time.

As for `CC(C)Cn1cc(-c2ncnc3[nH]cc(Cl)c23)cn1` [Compound 166], the values for the inhibition constant Ki at JAK-2 enzyme and on JAK3 were less than 0.1 µM and 0.1 to 0.5 µM, respectively.

In the case of `CC1CCC(C)N1C(=O)c1cc(-c2ncnc3[nH]ccc23)c[nH]1` (centres unmarked) [Compound 54], the Ki on JAK-2 enzyme and at JAK3 was less than 0.1 µM throughout.

As to `COC1CCCC(C(=O)Nc2nc(-c3ncnc4[nH]ccc34)cs2)C1` (centres unmarked) [Compound 63], the Ki on JAK-2 enzyme is less than 0.1 µM; on JAK3, 0.1 to 0.5 µM.

In the case of `CCC(CC)n1cc(-c2ncnc3[nH]ccc23)cn1` [Compound 39], the Ki on JAK-2 enzyme and at JAK3 was less than 0.1 µM in each case.

In the case of `FC(F)(F)CN(Cc1coc(-c2ncnc3[nH]ccc23)c1)CC1CC1` [Compound 131], the Ki on JAK-2 enzyme and on JAK3 was less than 0.1 µM in each case.

In the case of `CCC(CC)CNC(=O)c1cc(-c2ncnc3[nH]ccc23)c[nH]1` [Compound 138], the Ki on JAK-2 enzyme and on JAK3 was less than 0.1 µM throughout.

For `CC(C)NC(=O)c1cc(-c2ncnc3[nH]ccc23)c[nH]1` [Compound 8], the Ki on JAK-2 enzyme is less than 0.1 µM; on JAK3, 0.1 to 0.5 µM.

Consider `CCCNC(=O)C(C)n1cc(-c2ncnc3[nH]ccc23)cn1` (centres unmarked) [Compound 90], for which the inhibitory constant (Ki) on JAK-2 enzyme is 0.1 to 0.5 µM; at JAK3 it was less than 0.1 µM.

Turning to `CCCCN(CC)C(=O)c1cc(-c2ncnc3[nH]ccc23)cn1C` [Compound 232], the values for the Ki on JAK-2 enzyme and at JAK3 were less than 0.1 µM and 0.1 to 0.5 µM, respectively.

As to `O=C(c1cc(-c2ncnc3[nH]ccc23)c[nH]1)N1CCC(O)C1` (centres unmarked) [Compound 45], the Ki at JAK-2 enzyme and at JAK3 was 0.5 to 5 µM each time.

In the case of `O=C(c1cc(-c2ncnc3[nH]cc(Cl)c23)c[nH]1)N(CCC(F)(F)F)CC1CCC1` [Compound 241], the inhibition constant (Ki) is less than 0.1 µM on JAK-2 enzyme and 0.1 to 0.5 µM on JAK3.

Take `CC#CCN(C(=O)c1cc(-c2ncnc3[nH]ccc23)c[nH]1)C1CCCCC1` [Compound 190]: the values for the Ki on JAK-2 enzyme and at JAK3 were 0.1 to 0.5 µM and 0.5 to 5 µM, respectively.

As for `N#CCCN(CCC(F)(F)F)C(=O)c1cc(-c2ncnc3[nH]ccc23)co1` [Compound 230, N-(2-cyanoethyl)-4-(7H-pyrrolo[2,3-d]pyrimidin-4-yl)-N-(3,3,3-trifluoropropyl)furan-2-carboxamide], the inhibition constant (Ki) at JAK-2 enzyme was less than 0.1 µM; on JAK3 it was 0.1 to 0.5 µM.

For `COC(=O)[C@@H]1CC[C@H](C(=O)Nc2nc(-c3ncnc4[nH]ccc34)cs2)C1` [Compound 182], the Ki was less than 0.1 µM at JAK-2 enzyme and 0.1 to 0.5 µM at JAK3.

For `C#CCN(C(=O)c1cc(-c2ncnc3[nH]ccc23)c[nH]1)C1CCCCC1` [Compound 137], the inhibition constant (Ki) on JAK-2 enzyme was less than 0.1 µM; on JAK3, 0.1 to 0.5 µM.

`CC(C(=O)OC(C)(C)C)n1cc(-c2ncnc3[nH]ccc23)cn1` (centres unmarked) [Compound 95] displayed an inhibition constant Ki at JAK-2 enzyme of 0.1 to 0.5 µM.

With `O=C(N[C@H](CO)c1cccc(Cl)c1)c1cc(-c2ncnc3[nH]ccc23)c[nH]1` [Compound 1], on JAK3, the Ki is less than 0.1 µM.
